Data: ChEMBL document CHEMBL1130965, “Inhibitors of farnesyl protein transferase. Synthesis and biological activity of amide and cyanoguanidine derivatives containing a 5,11-dihydro[1]benzthiepin, benzoxepin, and benzazepin [4,3-b]pyridine ring system” (Bioorg Med Chem Lett, 1998)

What was measured:
[1] = molecular target: T1, Protein farnesyltransferase (Homo sapiens, UniProt P49354+P49356); assay: In vitro FPT potency by measuring the ability to inhibit the transfer of [3H]farnesyl from farnesyl pyrophosphate to H-Ras-CLVS.; type: protein-complex assay
[2] = molecular target: T1, Protein farnesyltransferase; assay: In vitro inhibition of Ras processing in COS cells; type: functional, cell-based
[3] = molecular target: T1, Protein farnesyltransferase; assay: In vitro inhibition of Ras processing by COS cells at 20 uM; type: functional, cell-based
[4] = molecular target: T1, Protein farnesyltransferase; assay: In vitro inhibition of [3H]farnesyl incorporation into H-Ras-CLVS by farnesyl transferase at 0.042 uM; type: protein-complex assay
[5] = molecular target: T1, Protein farnesyltransferase; assay: In vitro inhibition of [H]-farnesyl incorporation into H-Ras-CLVS by farnesyl transferase at 1.3 uM; type: protein-complex assay
[6] = molecular target: T1, Protein farnesyltransferase; assay: In vitro inhibition of [3H]farnesyl incorporation into H-Ras-CLVS by farnesyl transferase at 1.2 uM; type: protein-complex assay

Q: For `CN1CCC(CC(=O)N2CCC(=C3c4ccc(Cl)cc4SCc4cccnc43)CC2)CC1`, which IC50 [1] is on record?
A: 1790 nM

Q: Which IC50 [2] does the source give for `N#CN=C(NCc1ccncc1)N1CCC(=C2c3ccc(Cl)cc3SCc3cccnc32)CC1` here?
A: 1.7 µM

Q: And the IC50 [1]?
A: 43 nM

Q: What does the source list for `CN1Cc2cccnc2C(N2CCN(/C(=N/Cc3ccncc3)NC#N)CC2)c2ccc(Cl)cc21` (stereo not given)?
A: inhibition [3]: 10%; IC50 [1]: 140 nM

Q: `N#CN/C(=N\Cc1ccncc1)N1CCC(=C2c3ccc(Cl)cc3OCc3cccnc32)CC1` was tested. Which inhibition [4] did it give?
A: 25%

Q: Which IC50 [1] does the source give for `O=C(Cc1cc[n+]([O-])cc1)N1CCC(=C2c3ccc(Cl)cc3OCc3cc(Br)cnc32)CC1` here?
A: 110 nM

Q: With `O=C(CC1CCNCC1)N1CCN(C2c3ccc(Cl)cc3SCc3cccnc32)CC1` (stereo not given) as the compound, how does the IC50 [1] read?
A: 1100 nM

Q: `O=C(Cc1cc[n+]([O-])cc1)N1CCN(C2c3ccc(Cl)cc3S(=O)(=O)Cc3cccnc32)CC1` (stereo not given) was tested. Which IC50 [1] did it give?
A: 3400 nM

Q: What does the source list for `NC(=O)N1CCC(CC(=O)N2CCC(=C3c4ccc(Cl)cc4SCc4cccnc43)CC2)CC1`?
A: IC50 [2]: 3.8 µM; IC50 [1]: 920 nM

Q: With `O=C(Cc1cc[n+]([O-])cc1)N1CCC(=C2c3ccc(Cl)cc3SCc3cccnc32)CC1` as the compound, how does the IC50 [2] read?
A: 10 µM

Q: What about the IC50 [1] of the same compound?
A: 520 nM

Q: Which IC50 [1] does the source give for `O=C(Cc1ccncc1)N1CCN(C2c3ccc(Cl)cc3S(=O)(=O)Cc3cccnc32)CC1` (stereo not given) here?
A: 1000 nM

Q: For `CN1Cc2cccnc2C(N2CCN(C(=O)CC3CCNCC3)CC2)c2ccc(Cl)cc21` (stereo not given), which inhibition [5] is on record?
A: 10%

Q: For `O=C(Cc1ccncc1)N1CCC(=C2c3ccc(Cl)cc3S(=O)(=O)Cc3cccnc32)CC1`, which IC50 [1] is on record?
A: 560 nM

Q: For `N#CN/C(=N\Cc1ccncc1)N1CCN(C2c3ccc(Cl)cc3SCc3cccnc32)CC1` (stereo not given), which IC50 [1] is on record?
A: 61 nM

Q: For `O=C(Cc1ccncc1)N1CCC(=C2c3ccc(Cl)cc3SCc3cccnc32)CC1`, which IC50 [2] is on record?
A: 4.2 µM

Q: What about the IC50 [1] of the same compound?
A: 190 nM

Q: What does the source list for `O=C(CSc1cc[n+]([O-])cc1)N1CCC(=C2c3ccc(Cl)cc3SCc3cccnc32)CC1`?
A: IC50 [2]: 5 µM; IC50 [1]: 620 nM

Q: For `N#CN/C(=N\Cc1ccc[n+]([O-])c1)N1CCN(C2c3ccc(Cl)cc3SCc3cccnc32)CC1` (stereo not given), which IC50 [1] is on record?
A: 140 nM

Q: With `N#CN/C(=N\Cc1ccc[n+]([O-])c1)N1CCC(=C2c3ccc(Cl)cc3SCc3cccnc32)CC1` as the compound, how does the inhibition [3] read?
A: 26%

Q: And the IC50 [1]?
A: 38 nM

Q: `O=C(Cc1ccncc1)N1CCN(C2c3ccc(Cl)cc3SCc3cccnc32)CC1` (stereo in doubt; 36) was tested. Which IC50 [1] did it give?
A: 32 nM

Q: How did the inhibition [6] turn out when `NC(=O)N1CCC(CC(=O)N2CCC(=C3c4ccc(Cl)cc4S(=O)(=O)Cc4cccnc43)CC2)CC1` was run?
A: 35%

Q: How did the inhibition [6] turn out when `O=C(Cc1cc[n+]([O-])cc1)N1CCC(=C2c3ccc(Cl)cc3S(=O)(=O)Cc3cccnc32)CC1` was run?
A: 30%

Q: Which IC50 [1] does the source give for `O=C(CC1CCNCC1)N1CCC(=C2c3ccc(Cl)cc3SCc3cccnc32)CC1` here?
A: 590 nM

Q: For `O=C(Cc1ccncc1)N1CCN(C2c3ccc(Cl)cc3SCc3cccnc32)CC1` (stereo in doubt; 40), which IC50 [1] is on record?
A: 1000 nM

Q: With `O=C(CC1CCNCC1)N1CCC(=C2c3ccc(Cl)cc3S(=O)(=O)Cc3cccnc32)CC1` as the compound, how does the inhibition [6] read?
A: 28%

Q: Which IC50 [2] does the source give for `O=C(Cc1cc[n+]([O-])cc1)N1CCN(C2c3ccc(Cl)cc3SCc3cccnc32)CC1` (stereo not given) here?
A: 10 µM

Q: And the IC50 [1]?
A: 79 nM

Q: With `O=C(Cc1cc[n+]([O-])cc1)N1CCC(=C2c3ccc(Cl)cc3OCc3cccnc32)CC1` as the compound, how does the inhibition [3] read?
A: 41%

Q: And the IC50 [1]?
A: 1520 nM

Q: For `CN1Cc2cccnc2C(N2CCN(C(=O)Cc3ccncc3)CC2)c2ccc(Cl)cc21` (stereo not given), which inhibition [3] is on record?
A: 0%

Q: And the IC50 [1]?
A: 840 nM

Q: How did the IC50 [1] turn out when `NC(=O)N1CCC(CC(=O)N2CCN(C3c4ccc(Cl)cc4SCc4cccnc43)CC2)CC1` (stereo not given) was run?
A: 1120 nM

Q: Which IC50 [1] does the source give for `CN1CCC(CC(=O)N2CCN(C3c4ccc(Cl)cc4SCc4cccnc43)CC2)CC1` (stereo not given) here?
A: 2100 nM

Q: With `CN1Cc2cccnc2C(N2CCN(C(=O)Cc3cc[n+]([O-])cc3)CC2)c2ccc(Cl)cc21` (stereo not given) as the compound, how does the IC50 [2] read?
A: 20 µM

Q: What about the IC50 [1] of the same compound?
A: 2700 nM
